# Entries after “also recorded” stand apart in the source; their conditions may differ.
# Assays:
# NF-κB p65 = experiment: Western blot of lung tissue: NF-κB p65 phosphorylation; assay type: in vivo, mice
# Experimental: (§1) OVA sensitized/challenged asthma model Mice were sensitized and challenged with ovalbumin (OVA) or normal saline. Briefly, mice were sensitized by intraperitoneal (i.p.) injection of 0.2 mL of 2% aluminum hydroxide (ALUM) gel containing 10 μg of OVA antigen on days 0 and 14. On days 21, 22 and 23, the mice were challenged with 1% OVA in saline (0.01 g/mL) for 20 min via. a nebulizer (PART Turbo boy). On day 26, a 20 min nebulized OVA challenge with 5% OVA in saline (0.05 g/mL) was conducted. The control group received 0.2 mL of saline with 2% ALUM administered intraperitoneally on days 0 and 14 before receiving 20 min nebulized normal saline without OVA on days 21, 22, 23 and 26.
# (§2) Total protein from lung tissue was extracted according to the guidelines of manufacturer (Beyotime, China) and the concentrations were determined by BCA assay (Pierce). Primary antibodies against p38 MAPK (CST #8690), p-p38 MAPK (Thr180/Tyr182, CST #4511), NF-κB p65 (GeneTex #GTX102090), p-NF-κB p65 (S536, CST #3033) and GAPDH (Affinity #AF7021) as a standard were purchased and used.
# [1] = tested on: OVA-sensitized/OVA-challenged mice; experiment: Whole blood analysis and eosinophils counts in BAL fluid; assay type: in vivo; conditions: for per cent of eosinophil counts in blood and BALF: OVA asthma mice after repeated inhalation
# Experimental: as §1
# After Methacholine challenge, mice were anesthetized, blood was collected for hematology analysis. Part of the collected blood was transferred to a heparinized Eppendorf tube, gently mixed and centrifuged under 845×g at 4° C. for 10 min to isolate plasma specimen for further analysis. Broncho alveolar lavage (BAL) was performed on the right lung using 0.3 mL of phosphate buffered saline (PBS) for four times. The saline was instilled into the lungs and allowed to equilibrate for 30 s before recovery, after centrifugation supernatants were stored at −80° C. for further cytokines analysis while cell pellet was suspended in 0.5 ml PBS and the eosinophils counts were performed using Wright's stain. Then all the organs (liver, right lung lobe, spleen, kidneys, heart, brain) were excised surgically and washed totally with ice-cold PBS to clear the blood and then blotted dry with filter paper. These tissue specimens were then accurately weighted and stored at −80° C. for detecting the drug distribution by LC-MS/MS. White blood cell (WBC) counts and differential WBC counts were analyzed using a ProCyte Dx Hematology Analyzer (IDEXX Laboratories) in 4 h after blood collection.
# NF-κB and MARK pathways = experiment: NF-κB and MARK pathways, cytokines and ROS in LPS sepsis
# Description: LPS interacts with pathogen recognition receptors such as TLRs would also activate NF-κB and MARK pathways, which would further lead to an over-production of cytokines. […] The “cytokine storm” in sepsis involves in excessive release of INFs, IL-1B, IL-2,4,6,10,12, TNFa and MCP etc.
# In sepsis, there are also over productions of chemokines such as ROS. […] This invention disclosed the similar effects of other RS-racemic, S-enantiomer or R-enantiomer beta2 agonists including: salbutamol, bambuterol, vilanterol, clenterol, salmeterol, formoterol, trantinterol and Indacaterol and other β2 agonists.
# [2] = tested on: OVA-sensitized/OVA-challenged mice; experiment: Airway responsiveness to methacholine by whole-body plethysmography (Penh) in OVA sensitized/challenged asthma model; assay type: in vivo; conditions: for airway bronchoconstriction/hyperactivity (Penh) in response to increased doses of Mch: Mch 2, 10, 20 mg/mL aerosol, rac-ter at double dose of R-ter
# Experimental: as §1
# In vivo airway responsiveness to methacholine (Mch) was assessed on day 28 in conscious, freely moving, spontaneously breathing mice by a whole-body plethysmography (Buxco Electronics Inc.). Mice were challenged with aerosolized saline or increasing concentrations of Mch (2, 10, 20 mg/mL) administered by an ultrasonic nebulizer for 2 min. Before Mch challenge, a 20 μL drug aerosol or saline was given to the mice because of the short-acting bronchodilating effect of terbutaline. The degree of bronchoconstriction was expressed as enhanced pause (Penh), a calculated dimensionless value that correlates with measurement of airway resistance, impedance, and intrapleural pressure. Penh values were recorded and averaged for 4 min after each nebulization challenge.
# p38 MAPK = experiment: Western blot of lung tissue: p38 MAPK phosphorylation; assay type: in vivo, mice; conditions: vs OVA group
# Experimental: as §1, §2
# OVA-sIgE = experiment: Measurement of OVA-sIgE in plasma (ELISA); assay type: in vivo, mice; conditions: vs OVA group
# Experimental: as §1
# OVA-sIgE in plasma was measured using an enzyme-linked immunosorbent assay (ELISA) kit following the manufacturer's specification.
# [3] = tested on: OVA-sensitized/OVA-challenged mice; experiment: Lung histopathology (H&E, PAS, Masson) after R-, S-, rac-terbutaline; assay type: in vivo; conditions: for PAS stain of lung tissues: inflammatory and histopathological changes, collagen deposition: Example 3, vs model; for wall thickness of vessels / inflammatory remodeling processes: repeated inhalation, OVA mice; for PAS and Masson staining: subepithelial matrix glycoproteins, goblet cell hyperplasia, collagen deposition: vs OVA group; for smooth muscle hypertrophy, thickness of bronchial and vascular smooth muscle layer: vs OVA-treated mice
# Experimental: as §1
# Left lung tissue was obtained for histopathology and fixed in 10% formalin for 24 h, followed by paraffin-embedded and then were sectioned at 4 μm for routine staining with hematoxylin and eosin (H&E, Solarbio, Beijing, China), or with periodic acid-Schiff (PAS, Solarbio, Beijing, China), or submitted to Masson's trichrome staining (Baso, Zhuhai, China). Images of the stained lung sections were obtained by an Axisplus image-capturing system (Zeiss, Germany) and then a minimum of 3 bronchi (luminal diameter, 150-500 μm) were analyzed per mice for various parameters using an image analyzing computer system (IPP) by pathologists blinded to grouping. Histological score, airway smooth muscle thickness, PAS score (goblet cells hyperplasia), and collagen deposition were evaluated by a semi-quantitative scoring method.
# NF-κB = experiment: mRNA of NF-κB in the lung by quantitative real-time PCR; assay type: in vivo, mice; conditions: vs OVA group
# Experimental: as §1
# The level of mRNA of NF-κB in the lung were analyzed by quantitative real-time PCR analysis. The total RNA was extracted from lung tissue using RNaEX™ Total RNA Isolation Kit (Generay Biotech). The quality and quantity of RNA samples were assessed by NanoDrop ND-2000c spectrophotometer (Thermo Fisher Scientific, Inc., Wilmington, Del.). Total RNA (1 μg) was reverse transcribed into cDNA using cDNA Reverse Transcription Kit (Vazyme Biotech, Nanjing, China) according to the manufacturer's instruction. Real-time PCR reactions were performed using the 7500 real-time-PCR system (Applied Biosystems, Foster City, Calif., USA) with AceQ qPCR SYBR Green Master Mix (Vazyme Biotech, Nanjing, China). […]
# [4] = tested on: Th2 cytokines (IL-4, IL-5, IL-13); experiment: Analysis of cytokine levels in BAL fluid (ELISA); assay type: in vivo, mice; conditions: for cytokines released (FIG. 3): pretreatment for 7 consecutive days; for IL-4 release in BALF / IL-13 release in BALF / IL-5 in BALF: vs OVA group
# Experimental: as §1
# BAL fluid samples were analyzed for the concentrations of mouse IL-4 and IL-5 using commercial ELISA kits according to the manufacturers instructions (R&D Systems, Minneapolis, Minn.). IL-13 was assayed in BAL fluid with a mouse IL-13 immunoassay kit (Abeam, Cambridge, UK) following the manufacturer's protocol.
# BALB/c mice = experiment: Survival study after LPS challenge (sepsis); assay type: in vivo
# Experimental: Treatment were given intraperitoneally for 3 consecutive days. One hour after the 3rd day treatments, LPS (15 mg/kg) was administered intraperitoneally. The animals were monitored. Survival rate was then recorded every 12 h for 144 hours.
# [5] = 0.5 mg/kg + LPS, Saline + LPS 90.9
SMILES,ratio of phosphorylated to total p65 NF-κB (NF-κB p65),per cent of eosinophil counts in blood and BALF [1],NF-κB and MARK pathways activated by LPS (expression or phosphorylation) (NF-κB and MARK pathways; LPS sepsis),airway bronchoconstriction/hyperactivity (Penh) in response to increased doses of Mch [2],p38 MAPK phosphorylation (ratio of phosphorylated to total p38 MAPK) (p38 MAPK),OVA-sIgE level in plasma (OVA-sIgE),"PAS stain of lung tissues: inflammatory and histopathological changes, collagen deposition [3]",wall thickness of vessels / inflammatory remodeling processes [3],"PAS and Masson staining: subepithelial matrix glycoproteins, goblet cell hyperplasia, collagen deposition [3]","smooth muscle hypertrophy, thickness of bronchial and vascular smooth muscle layer [3]",NF-κB expression (mRNA transcript) in lung (NF-κB),cytokines released (FIG. 3) [4],other results
CC(C)(C)NC[C@@H](O)c1cc(O)cc(O)c1 [S-terbutaline],enhanced,significantly increased; also recorded: significantly higher; also recorded: the highest,further enhanced,further exacerbation of airway hyperactivity,enhanced,further increase,further enhanced; also recorded: further worsened,further increase of wall thickness of vessels,further exacerbated,further enhanced,further enhanced,did the opposite,"lung compliance ([2]; OVA induced asthma mice, baseline): reduced lung compliances; p38 MAPK phosphorylation (ratio of phosphorylated to total p38 MAPK) (p38 MAPK; listed as S-ter): further increased; IL-4 release in BALF [4]: further increase; IL-13 release in BALF [4]: further increase; IL-4 release in BALF ([4]; listed as S-ter): further increased; IL-13 release in BALF ([4]; listed as S-ter): further increased"
CC(C)(C)NC[C@H](O)c1cc(O)cc(O)c1 [R-terbutaline],decreased,significantly reduced,significantly inhibited,attenuated significantly,decreased,markedly inhibited,significantly ameliorate; also recorded: significantly alleviated or improved,significantly diminished,reversed and recovered toward normal,suppressed,effectively inhibited,significantly inhibited the release,"influx of eosinophils into BALF ([1]; OVA asthma mice): significantly inhibited; Percent of death after LPS challenges, 12 h (BALB/c mice; 0.5 mg/kg + LPS, Saline + LPS 0): 0%; Percent of death after LPS challenges, 24 h (BALB/c mice; 0.5 mg/kg + LPS, Saline + LPS 36.4): 18.2%; Percent of death after LPS challenges, 36 h (BALB/c mice; 0.5 mg/kg + LPS, Saline + LPS 72.7): 27.3%; Percent of death after LPS challenges, 48 h (BALB/c mice; [5]): 36.4%; Percent of death after LPS challenges, 72 h (BALB/c mice; [5]): 36.4%; Percent of death after LPS challenges, 144 h (BALB/c mice; [5]): 36.4%; rate of mortality/death after LPS challenge (in words) (BALB/c mice; in comparison of LPS challenged group without pretreatment (mortality 90.9%)): greatly reduced or even diminished; over production of inducible NO (iNO) and another ROS (NF-κB and MARK pathways; LPS sepsis): significantly prevent and inhibit; production or release of cytokines (cytokine storm) (NF-κB and MARK pathways; sepsis): significantly reduced; baseline Penh value (baseline airway reactivity) ([2]; exposure to saline, after 7 days inhalation pretreatment, OVA group 0.80±0.12, Control group 0.55±0.08, rac-terbutaline at double molar amount): significantly reduce; p38 MAPK phosphorylation (ratio of phosphorylated to total p38 MAPK) (p38 MAPK; listed as R-ter): markedly suppressed; degree of inflammatory cell infiltration (H&E, histological score) ([3]; rac-terbutaline at double dose): ameliorated; IL-5 in BALF [4]: significantly inhibited; IL-5 in BALF ([4]; listed as R-ter): significantly reduced"

# Reference: patent US20220362174A1, “Use of R-enantiomer Beta2-agonists for prevent and treatment of pulmonary inflammation and inflammatory remodeling for reduced adverse effects” (priority 2019, published 2022)
